Results reported in publication PMC2816717, “Active Fragments from Pro- and Antiapoptotic BCL-2 Proteins Have Distinct Membrane Behavior Reflecting Their Functional Divergence” (PLoS ONE, 2010).

What was measured:
[1] = Surface pressure change after peptide injection without lipid monolayer; type: physicochemical; details: peptide 0.2 µM injected into pure subphase, Hepes buffer pH 7.4, 22.5°C; defined as threshold for significant variation
Method: A number of control experiments were carried out in order to characterize the peptide-lipid monolayer interactions at the air-buffer interface. First, we determined surface pressure-time isotherms of Bax-α5S, a strongly amphipathic and hydrophobic peptide (Table 1), in presence or absence of lipids (POPC/DOPE/CL, see Figure 2). When the peptide was injected into a pure subphase without any lipid monolayer, the corresponding surface pressure change was Δπ = 4.8 mN/m (this value was subsequently defined as a threshold level for significant surface pressure variation). When the same injection was repeated but this time using a lipid monolayer over the aqueous subphase, at an initial surface pressure of 5 mN/m, the surface pressure rose up to Δπ = 32.1 mN/m (Figure 2). […] Then, we measured compression–decompression–recompression isotherms in presence of the peptide. […] After stabilization, the peptide was injected underneath the monolayer, πmax was recorded (32.1 mN/m) and the monolayer was decompressed.
Figure 2 Surface pressure-time isotherms for BAX-α5S with (bold line) or without (light line) POPC/DOPE/CL lipids. […] The initial velocity of surface pressure increase (Vi) was calculated as the slope of the curve (Δπ/Δt) at the time of peptide addition. […]

[2] = test system: mitochondria isolated from HEK293T cells; experiment: Cytochrome c release assay; type: biochemical; details: 10 µM peptide, 5 min incubation, 30°C, Western blot of supernatant and pellet
Method: Thus, we tested the ability of the different peptides to induce the release of mitochondrial proteins by incubating them with mitochondria isolated from HEK293T cells, and subsequently assaying the supernatant and pelleted fractions with antibodies for cytochrome c and mitoHSP70. […] On the other hand, incubation of mitochondria with 10 µM BID-α6 induced a slower release, with depletion of the mitochondrial pool of cytochrome c occurring only after 1 hour incubation.
Figure 7 Cytochrome c release assays. Peptides were incubated with isolated mitochondria for the indicated times (min) and the release of cytochrome c was monitored by Western blotting (IB). MitoHSP70 was used as an equal-loading control for the pellet fraction. Control lanes indicate that in the preparation the MOM is intact and cytochrome c is retained within the intermembrane space. A. Cytochrome c release assays for the first (BAX-α5S, BCLX-α5S, BID-α6) and second helices (BAX-α6, BCLX-α6, BID-α7) of the ‘pore domain’ of BAX, BCL-xL and BID using mitochondria isolated from HEK293T cells. B. Cytochrome c release assays for BAX-α5M and BAX-α5MS using mitochondria isolated from MEF and MEK BAX/BAK -/- double knock-out cells (MEF DKO). C. Cytochrome c release assays for the BH3 peptides.
Crude mitochondria were prepared from HEK 293T, mouse embryo fibroblast (MEF) or BAX/BAK double knockout MEF cells (MEF-DKO). In brief, cells were mechanically broken using a 2 ml glass/glass Dounce homogenizer (Kontes) (30 strokes). Homogenates were cleared at 1500 g and mitochondria were spun down at 10 000 g. For cytochrome c release assays, 30 µg of crude mitochondria were resuspended at 1 mg/ml in KCl buffer supplemented with succinate (5 mM) and EGTA (0.5 mM). Peptides (2.5, 10 or 25 µM) were added to the samples and incubations were carried out at 30°C under agitation (300 rpm). At the indicated time points, samples were centrifuged (5 min, 10 000 g, 4°C); supernatants and pellets were recovered and analyzed by immunoblotting for Cytochrome c and mitoHsp70.

**Q.** Which results are given for “WGRVVALFYFASKLVLKALSTK [BAX-α5S, short peptide of the first helix (α5) of the central hairpin of BAX]”?
**A.** surface pressure change (Δπ) without lipid monolayer [1]: 4.8 mN/m; cytochrome c release, in words [2]: complete depletion of all mitochondrial cytochrome c
